Laboratory results taken from patent publication US8007800B2, “Methods for treating bone cancer pain by administering a nerve growth factor antagonist antibody” (Pfizer Inc., priority 2004, dated 2011).

Assays:
[1] = tested on: C3H/HeJ mice injected with NCTC 2472 osteolytic murine sarcoma cells into the femur; test: Example 2: murine sarcoma bone cancer pain model, ongoing and palpation-evoked pain behaviors; type: in vivo, mouse; settings: days 10 and 14, vs sarcoma+vehicle
human NGF = human NGF (Homo sapiens, UniProt P01138); test: Binding affinity of Fab fragments to NGF (BIAcore surface plasmon resonance); settings: measured using Fab fragments
Description: The binding affinity of an anti-NGF antibody to NGF (such as hNGF) can be about 0.10 to about 1.0 nM, about 0.10 nM to about 0.80 nM, about 0.15 to about 0.75 nM and about 0.18 to about 0.72 nM. […] In some embodiment, the binding affinity is about 10 nM. In other embodiments, the binding affinity is less than about 10 nM. […] As is well known in the art, binding affinity can be expressed as KD, or dissociation constant, and an increased binding affinity corresponds to a decreased KD.
One way of determining binding affinity of antibodies to NGF is by measuring binding affinity of monofunctional Fab fragments of the antibody. To obtain monofunctional Fab fragments, an antibody (for example, IgG) can be cleaved with papain or expressed recombinantly. The affinity of an anti-NGF Fab fragment of an antibody can be determined by surface plasmon resonance (BIAcore3000™ surface plasmon resonance (SPR) system, BIAcore, INC, Piscaway N.J.). CM5 chips can be activated with N-ethyl-N′-(3-dimethylaminopropyl)-carbodiinide hydrochloride (EDC) and N-hydroxysuccinimide (NHS) according to the supplier's instructions. […] The concentrations of the Fab proteins are determined by ELISA and/or SDS-PAGE electrophoresis using a Fab of known concentration (as determined by amino acid analysis) as a standard. […] Equilibrium dissociation constant (KD) values are calculated as koff/kon. […]

human NGF, sequence (P01138 122-241): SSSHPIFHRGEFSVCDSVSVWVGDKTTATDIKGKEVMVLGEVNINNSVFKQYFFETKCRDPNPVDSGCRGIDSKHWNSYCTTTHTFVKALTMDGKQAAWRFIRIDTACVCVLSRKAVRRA

Compound: CN1CC[C@]23c4c5ccc(O)c4O[C@H]2[C@@H](O)C=C[C@H]3[C@H]1C5.O=S(=O)(O)O [morphine sulfate]
- ongoing and movement-evoked guarding behaviors ([1]; morphine sulfate 10 mg/kg i.p. 15 min prior to testing): significantly reduced
- ongoing and movement-evoked guarding behaviors ([1]; morphine sulfate 30 mg/kg i.p. 15 min prior to testing): significantly reduced

Compound: antibody E3: humanized mouse anti-NGF monoclonal antibody; human IgG2a constant region A330P331 to S330S331, kappa light chain, variable regions SEQ ID NO:1 and 2
- Kd (human NGF): ~0.07 nM
